# ChEMBL document CHEMBL4359841, “Late-Stage Functionalization of Platensimycin Leading to Multiple Analogues with Improved Antibacterial Activity in Vitro and in Vivo” (2019)
# Activity calls are given as the source filed them. Unless noted, the rule behind the calls is not given here.
# Tests used:
# Staphylococcus aureus [1] = test: Inhibition of FabB/FabF in methicillin-resistant Staphylococcus aureus 2959 clinical isolate assessed as antibacterial activity after 16 hrs by agar dilution method
# Staphylococcus aureus [2] = test: Antibacterial activity against methicillin-resistant Staphylococcus aureus infected in C57BL/6J mouse model of peritonitis assessed as mouse survival at 10 mg/kg, ip dosed at 1 hr and 5 hrs post infection and measured for 7 days relative to control; format: functional
# Staphylococcus aureus [3] = test: Inhibition of FabB/FabF in methicillin-resistant Staphylococcus aureus 3182 clinical isolate assessed as antibacterial activity after 16 hrs by agar dilution method
# Staphylococcus aureus [4] = test: Inhibition of FabB/FabF in methicillin-resistant Staphylococcus aureus 3112 clinical isolate assessed as antibacterial activity after 16 hrs by agar dilution method
# Staphylococcus aureus [5] = test: Inhibition of FabB/FabF in methicillin-resistant Staphylococcus aureus 3079 clinical isolate assessed as antibacterial activity after 16 hrs by agar dilution method
# Staphylococcus aureus [6] = test: Inhibition of FabB/FabF in methicillin-resistant Staphylococcus aureus 3193 clinical isolate assessed as antibacterial activity after 16 hrs by agar dilution method
# Staphylococcus aureus [7] = test: Inhibition of FabB/FabF in methicillin-resistant Staphylococcus aureus 3095 clinical isolate assessed as antibacterial activity after 16 hrs by agar dilution method
# Staphylococcus aureus [8] = test: Inhibition of FabB/FabF in methicillin-resistant Staphylococcus aureus 3140 clinical isolate assessed as antibacterial activity after 16 hrs by agar dilution method
# Staphylococcus aureus [9] = test: Inhibition of FabB/FabF in methicillin-resistant Staphylococcus aureus 3181 clinical isolate assessed as antibacterial activity after 16 hrs by agar dilution method
# Staphylococcus aureus [10] = test: Inhibition of FabB/FabF in methicillin-resistant Staphylococcus aureus 2985 clinical isolate assessed as antibacterial activity after 16 hrs by agar dilution method
# Staphylococcus aureus [11] = test: Inhibition of FabB/FabF in methicillin-resistant Staphylococcus aureus 2951 clinical isolate assessed as antibacterial activity after 16 hrs by agar dilution method
# Staphylococcus aureus [12] = test: Inhibition of FabB/FabF in methicillin-sensitive Staphylococcus aureus 2955 clinical isolate assessed as antibacterial activity after 16 hrs by agar dilution method
# Staphylococcus aureus [13] = test: Inhibition of FabB/FabF in methicillin-resistant Staphylococcus aureus 3114 clinical isolate assessed as antibacterial activity after 16 hrs by agar dilution method
# Staphylococcus aureus [14] = test: Inhibition of FabB/FabF in methicillin-resistant Staphylococcus aureus 3110 clinical isolate assessed as antibacterial activity after 16 hrs by agar dilution method
# Staphylococcus aureus [15] = test: Inhibition of FabB/FabF in methicillin-resistant Staphylococcus aureus 3104 clinical isolate assessed as antibacterial activity after 16 hrs by agar dilution method
# Staphylococcus aureus [16] = test: Inhibition of FabB/FabF in methicillin-resistant Staphylococcus aureus 3100 clinical isolate assessed as antibacterial activity after 16 hrs by agar dilution method
# Staphylococcus aureus [17] = test: Inhibition of FabB/FabF in methicillin-resistant Staphylococcus aureus assessed as antibacterial activity at 5 ug/disk after 18 hrs by agar disk diffusion method
# Staphylococcus aureus [18] = test: Inhibition of FabB/FabF in methicillin-resistant Staphylococcus aureus 2978 clinical isolate assessed as antibacterial activity after 16 hrs by agar dilution method
# Staphylococcus aureus [19] = test: Inhibition of FabB/FabF in methicillin-sensitive Staphylococcus aureus 2954 clinical isolate assessed as antibacterial activity after 16 hrs by agar dilution method
# Staphylococcus aureus [20] = test: Inhibition of FabB/FabF in methicillin-resistant Staphylococcus aureus 3093 clinical isolate assessed as antibacterial activity after 16 hrs by agar dilution method
# Staphylococcus aureus [21] = test: Inhibition of FabB/FabF in methicillin-resistant Staphylococcus aureus 3188 clinical isolate assessed as antibacterial activity after 16 hrs by agar dilution method
# Staphylococcus aureus [22] = test: Inhibition of FabB/FabF in methicillin-resistant Staphylococcus aureus 3071 clinical isolate assessed as antibacterial activity after 16 hrs by agar dilution method
# Staphylococcus aureus [23] = test: Inhibition of FabB/FabF in methicillin-resistant Staphylococcus aureus assessed as antibacterial activity after 16 hrs by agar dilution method
# Staphylococcus aureus [24] = test: Inhibition of FabB/FabF in methicillin-sensitive Staphylococcus aureus 2956 clinical isolate assessed as antibacterial activity after 16 hrs by agar dilution method
# Staphylococcus aureus [25] = test: Inhibition of FabB/FabF in methicillin-resistant Staphylococcus aureus 2976 clinical isolate assessed as antibacterial activity after 16 hrs by agar dilution method
# Staphylococcus aureus [26] = test: Inhibition of FabB/FabF in methicillin-resistant Staphylococcus aureus 2968 clinical isolate assessed as antibacterial activity after 16 hrs by agar dilution method
# Staphylococcus aureus [27] = test: Inhibition of FabB/FabF in methicillin-resistant Staphylococcus aureus 3161 clinical isolate assessed as antibacterial activity after 16 hrs by agar dilution method
# Staphylococcus aureus [28] = test: Inhibition of FabB/FabF in methicillin-resistant Staphylococcus aureus 3046 clinical isolate assessed as antibacterial activity after 16 hrs by agar dilution method
# Staphylococcus aureus [29] = test: Inhibition of FabB/FabF in methicillin-resistant Staphylococcus aureus 3103 clinical isolate assessed as antibacterial activity after 16 hrs by agar dilution method
# Staphylococcus aureus [30] = test: Inhibition of FabB/FabF in methicillin-resistant Staphylococcus aureus 2984 clinical isolate assessed as antibacterial activity after 16 hrs by agar dilution method
# Staphylococcus aureus [31] = test: Inhibition of FabB/FabF in methicillin-resistant Staphylococcus aureus 3196 clinical isolate assessed as antibacterial activity after 16 hrs by agar dilution method
# Staphylococcus aureus [32] = test: Inhibition of FabB/FabF in methicillin-sensitive Staphylococcus aureus 2952 clinical isolate assessed as antibacterial activity after 16 hrs by agar dilution method
# Staphylococcus aureus [33] = test: Inhibition of FabB/FabF in Staphylococcus aureus ATCC 29213 assessed as antibacterial activity after 16 hrs by agar dilution method
# Staphylococcus aureus [34] = test: Inhibition of FabB/FabF in methicillin-resistant Staphylococcus aureus 3094 clinical isolate assessed as antibacterial activity after 16 hrs by agar dilution method
# Staphylococcus aureus [35] = test: Inhibition of FabB/FabF in methicillin-resistant Staphylococcus aureus 3111 clinical isolate assessed as antibacterial activity after 16 hrs by agar dilution method
# Staphylococcus aureus [36] = test: Inhibition of FabB/FabF in methicillin-resistant Staphylococcus aureus 3150 clinical isolate assessed as antibacterial activity after 16 hrs by agar dilution method
# Staphylococcus aureus [37] = test: Inhibition of FabB/FabF in methicillin-resistant Staphylococcus aureus 2953 clinical isolate assessed as antibacterial activity after 16 hrs by agar dilution method
# Staphylococcus aureus [38] = test: Inhibition of FabB/FabF in methicillin-resistant Staphylococcus aureus 2962 clinical isolate assessed as antibacterial activity after 16 hrs by agar dilution method
# Staphylococcus aureus [39] = test: Inhibition of FabB/FabF in methicillin-sensitive Staphylococcus aureus assessed as antibacterial activity after 16 hrs by agar dilution method
# Staphylococcus aureus [40] = test: Inhibition of FabB/FabF in methicillin-resistant Staphylococcus aureus 3158 clinical isolate assessed as antibacterial activity after 16 hrs by agar dilution method
# Staphylococcus aureus [41] = test: Inhibition of FabB/FabF in methicillin-resistant Staphylococcus aureus 3156 clinical isolate assessed as antibacterial activity after 16 hrs by agar dilution method
structure (smiles),measurement,setting,value
C[C@]12C[C@@]34C=CC(=O)[C@@](C)(CCC(=O)Nc5c(O)ccc(C(=O)O)c5O)[C@@H]3[C@H](C[C@@H]1C4)O2,MIC,Staphylococcus aureus [1],1 µg/mL
same,Survival,Staphylococcus aureus [2],inactive
same,MIC,Staphylococcus aureus [3],1 µg/mL
same,MIC,Staphylococcus aureus [4],1 µg/mL
same,MIC,Staphylococcus aureus [5],1 µg/mL
same,MIC,Staphylococcus aureus [6],1 µg/mL
same,MIC,Staphylococcus aureus [7],1 µg/mL
same,MIC,Staphylococcus aureus [8],1 µg/mL
same,MIC,Staphylococcus aureus [9],1 µg/mL
same,MIC,Staphylococcus aureus [10],1 µg/mL
same,MIC,Staphylococcus aureus [11],1 µg/mL
same,MIC,Staphylococcus aureus [12],1 µg/mL
same,MIC,Staphylococcus aureus [13],1 µg/mL
same,MIC,Staphylococcus aureus [14],1 µg/mL
same,MIC,Staphylococcus aureus [15],1 µg/mL
same,MIC,Staphylococcus aureus [16],1 µg/mL
same,"antibacterial activity (disk diffusion, qualitative)",Staphylococcus aureus [17],Active
same,MIC,Staphylococcus aureus [18],1 µg/mL
same,MIC,Staphylococcus aureus [19],1 µg/mL
same,MIC,Staphylococcus aureus [20],1 µg/mL
same,MIC,Staphylococcus aureus [21],1 µg/mL
same,MIC,Staphylococcus aureus [22],1 µg/mL
same,MIC,Staphylococcus aureus [23],0.5 µg/mL
same,MIC,Staphylococcus aureus [24],1 µg/mL
same,MIC,Staphylococcus aureus [25],1 µg/mL
same,MIC,Staphylococcus aureus [26],1 µg/mL
same,MIC,Staphylococcus aureus [27],1 µg/mL
same,MIC,Staphylococcus aureus [28],1 µg/mL
same,MIC,Staphylococcus aureus [29],1 µg/mL
same,MIC,Staphylococcus aureus [30],1 µg/mL
same,MIC,Staphylococcus aureus [31],1 µg/mL
same,MIC,Staphylococcus aureus [32],1 µg/mL
same,MIC,Staphylococcus aureus [33],1 µg/mL
same,MIC,Staphylococcus aureus [34],1 µg/mL
same,MIC,Staphylococcus aureus [35],1 µg/mL
same,MIC,Staphylococcus aureus [36],1 µg/mL
same,MIC,Staphylococcus aureus [37],1 µg/mL
same,MIC,Staphylococcus aureus [38],1 µg/mL
same,MIC,Staphylococcus aureus [39],0.5 µg/mL
same,MIC,Staphylococcus aureus [40],1 µg/mL
same,MIC,Staphylococcus aureus [41],1 µg/mL
C[C@]12C[C@@]34C=C(SC5CCCCC5)C(=O)[C@@](C)(CCC(=O)Nc5c(O)ccc(C(=O)O)c5O)[C@@H]3[C@H](C[C@@H]1C4)O2,inhibition,Staphylococcus aureus [1],Active
same,survival at 10 mg/kg,Staphylococcus aureus [2],> 60%
same,inhibition,Staphylococcus aureus [3],Active
same,inhibition,Staphylococcus aureus [4],Active
same,inhibition,Staphylococcus aureus [5],Active
same,inhibition,Staphylococcus aureus [6],Active
same,inhibition,Staphylococcus aureus [7],Active
same,inhibition,Staphylococcus aureus [8],Active
same,inhibition,Staphylococcus aureus [9],Active
same,inhibition,Staphylococcus aureus [10],Active
same,inhibition,Staphylococcus aureus [11],Active
same,inhibition,Staphylococcus aureus [12],Active
same,inhibition,Staphylococcus aureus [13],Active
same,inhibition,Staphylococcus aureus [14],Active
same,inhibition,Staphylococcus aureus [15],Active
same,inhibition,Staphylococcus aureus [16],Active
same,"antibacterial activity (disk diffusion, qualitative)",Staphylococcus aureus [17],Active
same,inhibition,Staphylococcus aureus [18],Active
same,inhibition,Staphylococcus aureus [19],Active
same,inhibition,Staphylococcus aureus [20],Active
same,inhibition,Staphylococcus aureus [21],Active
same,inhibition,Staphylococcus aureus [22],Active
same,MIC,Staphylococcus aureus [23],0.25 µg/mL
same,inhibition,Staphylococcus aureus [24],Active
same,inhibition,Staphylococcus aureus [25],Active
same,inhibition,Staphylococcus aureus [26],Active
same,inhibition,Staphylococcus aureus [27],Active
same,inhibition,Staphylococcus aureus [28],Active
same,inhibition,Staphylococcus aureus [29],Active
same,inhibition,Staphylococcus aureus [30],Active
same,inhibition,Staphylococcus aureus [31],Active
same,inhibition,Staphylococcus aureus [32],Active
same,MIC,Staphylococcus aureus [33],0.5 µg/mL
same,inhibition,Staphylococcus aureus [34],Active
same,inhibition,Staphylococcus aureus [35],Active
same,inhibition,Staphylococcus aureus [36],Active
same,inhibition,Staphylococcus aureus [37],Active
same,inhibition,Staphylococcus aureus [38],Active
same,MIC,Staphylococcus aureus [39],0.25 µg/mL
same,inhibition,Staphylococcus aureus [40],Active
same,inhibition,Staphylococcus aureus [41],Active
